“And” between values parts separate entries of the source, which are not always exact repeats. Equal entries are not always repeated.
Columns and labels:
[1] = Urine and faeces analysis by HPLC (mCy-containing compounds); type: in vivo, mice; parameters: mCy in urine: unit not given beside the values; conditions: for percentage excreted to the faeces (HPLC) / percentage excreted to the urine (HPLC): after i.v. P-CyPt
[2] = test system: HeLa cells; assay: Depletion of intracellular GSH; type: cell-based, human; parameters: key to Intracellular GSH level after treatment (Supplementary Table S2): GSH content in fmol/cell; conditions: for Intracellular GSH level after treatment (Supplementary Table S2): blank (before treatment) mean 12.88
Method: Supplementary Tables 1-13 Supplementary Table 1. ICP-OES analysis of Pt in HeLa cells. a Pt drugs Pt element per cell Percentage of Pt element (fmol/cell) b taken up by cells (%) c P-CyPt 24.60 ± 3.5 36.9 ± 5.3 […] 1.73 ± 0.2 2.6 ± 0.3 CDDP 0.73 ± 0.09 1.1 ± 0.1 P-CyPt + Na3VO4 0.07 ± 0.01 0.1 ± 0.01 a HeLa cells were untreated or pre-treated with Na3VO4 (10 mM) for 20 min and then incubated with indicated Pt drug (10 μM) for 1 h. Then, the cells were trypsinized, collected, and the cell numbers were counted and digested with trace metal concentrated HNO3 (65~70%) and HCl (36~38%). The amount of Pt element was determined by ICP-OES. b Pt per cell represents the average amount of Pt element in one HeLa cell, which was calculated by dividing the total amount of Pt element in cells by the cell number. c Percentage of Pt taken up by cells was calculated by dividing the total amount of Pt elements in cells by the amount of Pt drugs added. Values denote mean ± s.d. (n = 3 independent experiments). Supplementary Table 2. Comparison of the intracellular GSH in HeLa cells before and after incubation with different Pt drugs. a Pt [GSH] before treatment [GSH] drugs (fmol/cell) [GSH] after treatment (fmol/cell) depletion b CDDP 11.81 ± 1.7 8.3% […] 11.71 ± 1.6 9.1% 12.88 ± 1.5 P-CyPt 8.07 ± 0.8 37.3% a HeLA cells were untreated or treated with different Pt drugs for 2 h. The cells were washed with PBS for three times, and replaced with fresh medium and incubated for another 24 h. After that, the cells were trypsinized, centrifuged and counted. The cell pellets were dispersed, lysed via sonication, and ultracentrifuged to obtain supernatant. The GSH content (nPt) in the supernatant was measured by a reported detection method. The content of GSH per cell ([GSH]) before and after treatment (nB and nA) was calculated according to the formula: […] GSH depletion: The GSH depletion (Δ) was calculated according to the formula: %Δ = (nB - nA)/ nB. Values denote mean ± s.d. (n = 3 independent experiments). 27 page 45: DNA […]-stained with 5x loading buffer in the TAE buffer and the resultant gel visualized by Gel DocTM XR+ (Bio-Rad) system. Depletion of intracellular GSH. HeLa cells (2×10^5 cells/well) in 2 mL DMEM medium were seeded onto 6-well plates and allowed to grow overnight. Then cells were then treated with […], or CDDP (10 μM), respectively. After that, cells were digested with trypsin and washed with PBS for 3 times. Then, cell pellets were dispersed in pre-chilled extraction solution (1 mL, 0.1 M potassium phosphate buffer containing 0.1% Triton, 0.6% sulfosalicylic acid, and 5 mM EDTA, pH 7.4) and sonicated with an US probe on ice for 2 min. To ensure that cells were lysed completely, the solution was further frozen and thawed twice. Finally, the solution was centrifuged at 3000 g at 4 °C for 4 min. The supernatant was taken to measure the GSH content using commercial GSH detection kit, according to a reported procedure (Nat. Protoc. 2006, 1, 3159). MCTS imaging and cytotoxicity. The three-dimensional multicellular spheroids (MCTS) of HeLa were cultured according to the method previously described (Nat. Protoc. 2009, 4, 309) with minor modifications. Briefly, a well of 96-well plates was covered by 50 μL of hot agarose solution (1.5 w/v %) and then cooled to form a layer of agaropectin. HeLa cells were seeded to the agaropectin-coated well at a density of 2×10^3 cells/well, and incubated to grow into spheroids. DMEM medium was replaced with fresh medium every 2 days until the diameter of tumor spheroids grows near 400 μm. Then, the MCSs were incubated with 10 μM P-CyPt or […] for 1 h, washed with PBS for 3 times. Blank DMEM medium was added, and incubated for another 24 h. After that, PI (4 μM) was added and incubated for 1 h. The medium was removed, and the spheroids were gently washed with PBS (×1), which was then carefully transferred to a glass bottom dish. […]

[3] = Body weight of mice with orthotopic HepG2/Luc liver tumors; type: in vivo; conditions: individual samples, in g (unit assumed)
[4] = as above; type: in vivo; conditions: mean of 3, in g (unit assumed)
[5] = Time period 0-2 h, individual mice, matrix and injected agent not given
[6] = Time period 0-2 h, mean of 3 mice, matrix and injected agent not given
[7] = Time period 2-4 h, individual mice
[8] = Time period 2-4 h, mean of 3 mice
[9] = Time period 4-8 h, individual mice
[10] = Time period 4-8 h, mean of 3 mice
[11] = Time period 8-12 h, mean of 3 mice
[12] = HeLa cells, Pt drug 2 h, then fresh medium 24 h

CC1(C)C(/C=C/C2=C3Oc4cc(OP(=O)(O)O)c(Cl)cc4C=C3CCC2)=[N+](CCCNC(=O)[C@@H](Cc2ccccc2)NC(=O)[C@@H](Cc2ccccc2)NC(=O)CCC(=O)[O][Pt]([NH2])([NH2])([OH])([Cl])[Cl])c2ccccc21 [P-CyPt]
mCy in urine ([1]; Fig.6e, 0-2 h, mean of 3 mice): 12.76 | mCy in urine ([1]; Fig.6e, 0-2 h, single mice): 12.5823 and 14.2325 and 11.4685 | mCy in urine ([1]; Fig.6e, 2-4 h, mean of 3 mice): 12.43 | mCy in urine ([1]; Fig.6e, 2-4 h, single mice): 12.5615 and 13.5939 and 11.1324 | mCy in urine ([1]; Fig.6e, 4-8 h, mean of 3 mice): 12.56 | mCy in urine ([1]; Fig.6e, 4-8 h, single mice): 12.5588 and 13.6118 and 11.5060 | mCy in urine ([1]; Fig.6e, 8-12 h, mean of 3 mice): 7.02 | mCy in urine ([1]; Fig.6e, 8-12 h, single mice): 7.0621 and 8.1416 and 5.8422 | mCy in urine ([1]; Fig.6f, 0-2 h, mean of 3 mice): 0.53 | mCy in urine ([1]; Fig.6f, 0-2 h, single mice): 0.4663 and 0.7332 and 0.3884 | mCy in urine ([1]; Fig.6f, 2-4 h, mean of 3 mice): 6.03 | mCy in urine ([1]; Fig.6f, 2-4 h, single mice): 6.1714 and 7.3564 and 4.5750 | mCy in urine ([1]; Fig.6f, 4-8 h, mean of 3 mice): 21.29 | mCy in urine ([1]; Fig.6f, 4-8 h, single mice): 22.9482 and 23.3466 and 17.5729 | mCy in urine ([1]; Fig.6f, 8-12 h, mean of 3 mice): 9.19 | mCy in urine ([1]; Fig.6f, 8-12 h, single mice): 7.4602 and 10.7840 and 9.3353 | Compound found in excreta (%), Supplementary Table S5 [1, 5]: 11.1327% and 12.5928% and 10.1473% | Compound found in excreta (%), Supplementary Table S6 [1, 5]: 0.3965% and 0.6235% and 0.3303% | Compound found in excreta (%), Supplementary Table S5 [1, 6]: 11.29% | Compound found in excreta (%), Supplementary Table S6 [1, 6]: 0.45% | Compound found in excreta (%), Supplementary Table S5 [1, 7]: 5.17% and 5.5947% and 4.582% | Compound found in excreta (%), Supplementary Table S6 [1, 7]: 4.641% and 5.532% and 3.44% | Compound found in excreta (%), Supplementary Table S5 [1, 8]: 5.12% | Compound found in excreta (%), Supplementary Table S6 [1, 8]: 4.54% | Compound found in excreta (%), Supplementary Table S5 [1, 9]: 4.333% and 4.696% and 3.97% | Compound found in excreta (%), Supplementary Table S6 [1, 9]: 0.5705% and 0.5804% and 0.4369% | Compound found in excreta (%), Supplementary Table S5 [1, 10]: 4.33% | Compound found in excreta (%), Supplementary Table S6 [1, 10]: 0.53% | Compound found in excreta (%), Supplementary Table S5 [1, 11]: 1.41% | Compound found in excreta (%), Supplementary Table S6 [1, 11]: 0.06% | percentage excreted to the faeces (HPLC) ([1]; 2-4 h): 4.54± 1.05% and ~ 4.5% | percentage excreted to the urine (HPLC) ([1]; 2-4 h): 5.12 ± 0.51% | percentage excreted to the faeces (HPLC) ([1]; 4-8 h): 0.53 ± 0.080% | percentage excreted to the urine (HPLC) ([1]; 4-8 h): 4.33 ± 0.055% | percentage excreted to the faeces (HPLC) ([1]; 8-12 h): 0.059 ± 0.011% | percentage excreted to the urine (HPLC) ([1]; 8-12 h): 1.41 ± 0.23% | mCy-containing compounds excreted via hepatobiliary system ([1]; over 12 h, of injected dose): ~ 37.0% | mCy-containing compounds excreted via renal system ([1]; over 12 h, of injected dose): ~ 44.8% | [GSH] after treatment [2, 12]: 8.07 ± 0.8 fmol/cell | [GSH] depletion [2, 12]: 37.3% and ~ 37.3% | Intracellular GSH level after treatment (Supplementary Table S2) ([2]; individual samples): 7.3478 and 7.9326 and 8.9304 | Intracellular GSH level after treatment (Supplementary Table S2) ([2]; mean of 3 samples): 8.07 | GSH-depletion ([2]; relative to blank (before treatment)): 37.30% | Body weight of mice (Supplementary Fig. 34) ([3]; time 0 d): 18.59 and 19.8 and 19.81 | Body weight of mice (Supplementary Fig. 34) ([3]; time 3 d): 18.83 and 19.54 and 20.74 | Body weight of mice (Supplementary Fig. 34) ([3]; time 6 d): 17.51 and 20.1 and 20.66 | Body weight of mice (Supplementary Fig. 34) ([3]; time 9 d): 18.1 and 20.43 and 20.94 | Body weight of mice (Supplementary Fig. 34) ([3]; time 12 d): 19.14 and 19.19 and 21.74 | Body weight of mice (Supplementary Fig. 34) ([3]; time 15 d): 19.31 and 19.45 and 21.01 | Body weight of mice (Supplementary Fig. 34) ([4]; time 0 d): 19.4 | Body weight of mice (Supplementary Fig. 34) ([4]; time 3 d): 19.7033 | Body weight of mice (Supplementary Fig. 34) ([4]; time 6 d): 19.4233 | Body weight of mice (Supplementary Fig. 34) ([4]; time 9 d): 19.8233 | Body weight of mice (Supplementary Fig. 34) ([4]; time 12 d): 20.0233 | Body weight of mice (Supplementary Fig. 34) ([4]; time 15 d): 19.9233
